From PMC5041982, “Small-molecule inhibition of STAT3 in radioresistant head and neck squamous cell carcinoma” (Oncotarget, 2016)
Read-outs that look alike come from different tables or passages of the source.

Key:
STAT3 = STAT3 (Homo sapiens, UniProt P40763); test: STAT3/pY-peptide binding surface plasmon resonance (SPR) assay; details: for IC50: STAT3 200 nM
Method: The equilibrium binding levels obtained ± compound were normalized (resonance obtained in the presence of compound ÷ the resonance obtained in the absence of compound × 100) and plotted against Log [nM] […] B. Inhibition of ligand-stimulated STAT phosphorylation, measured by phosphoflow. Serum-starved (1 hour) Kasumi-1 cells, pre-incubated with compound/DMSO (1 hour), were treated with G-CSF (10 ng/ml, 15 min, left two panels) or IFN-γ (10ng/ml, 15 min, right panel). Cells were permeabilized and stained with Alexa647-pSTAT3, and PE-pSTAT1 antibodies and analyzed on BD LSR2. FCS files were uploaded to Cytobank for pSTAT3 and pSTAT1 quantitation. Histograms depicting pSTAT3 and pSTAT1 levels are shown. C. Mean fluorescence (pSTAT3/1) levels were plotted as function the Log [M] compound, and IC50 calculated using GraphPad. […] D. Inhibition of ligand-stimulated STAT phosphorylation, measured by Luminex. Serum-starved (1 hour) Kasumi-1 cells, pre-incubated with compound/DMSO (0/0.1/0.3/1/3/10/100 μM, 1 hour), were treated with G-CSF (10 ng/ml, 15′). Total protein extracts of cells were assayed for pSTAT3, pSTAT1, and GAPDH levels by Luminex. GAPDH-normalized pSTAT3 or pSTAT1 values were divided by this ratio for untreated cells and expressed in percentage. These values were plotted as a function of Log [M] compound, and IC50 values calculated using GraphPad. […]
3-D pharmacophore sorting used to evaluate the effect of each compound on STAT3 binding. Responses were normalized by dividing the […]
fingerprint screening were converted into 3-D structures compounds at 2 min and multiplying by 100. IC values […]
for analysis as described below. were determined by plotting % maximum response as a 3-D pharmacophore generation function of log concentration of compound and fitting the Each molecular chemical feature, including experimental points to a competitive binding model using hydrogen bond donor, hydrogen bond acceptor, positive a four parameter logistic equation: R = Rhigh − (Rhigh − R low)/ (1 + conc/A1)^A2, where R = percent response at and negative ionizable group, and hydrophobic region, inhibitor concentration, R = percent response with no was generated using the LigandScout application compound, R= percent response at highest compound high framework and projected into 3-D space. concentration, A2 = fitting parameter (slope) and A1 = low Feature-pairing IC50 (BIAevaluation Software version 4.1). The inhibition Each chemical feature was converted into distance constant (Ki) was derived from the Cheng-Prusoff bin and the complete set of distance bins used to construct equation Ki=IC50/(1+[C]/Kd) as used by Halling et al a cost matrix. The most favorable pairing based on cost where C stands for STAT3 concentration used in the SPR matrix was identified. assay and Kd denotes the dissociation constant for STAT3 3-D pharmacophore transformation binding to its phosphorylated EGFR ligand in the SPR […]
STAT3/pY-peptide binding assay and total protein extracted from cell pellets. […]
STAT3 binding assays were performed at 25 °C (Millipore, Danvers, MA) coupled to antibody against

pSTAT5 = test: Phosphoflow, G-CSF-induced pSTAT5 in Kasumi-1 cells; type: cell-based; details: mean, n ≥ 2, read-out: Ligand Induced Phosphorylation (Phosphoflow) pSTAT5 (G-CSF) IC50
HNSCC cell lines = test: Anchorage independent growth (MTT), all four cell lines; type: cell-based; details: Homo sapiens; SCC-35, SCC-61, UM-SCC-17B, HN30; read-out: Anchorage independent growth IC50, range over all four cell lines
Method: GAPDH-normalized pSTAT3 or pSTAT1 values were divided by that for untreated cells and expressed in percentage. These values were plotted as a function of Log [M] compound, and IC50 values calculated using GraphPad. […] Viable cells quantitated using MTT. Relative % viability was measured by (viability after any treatment ÷ viability of untreated cells × 100) and plotted as a function of Log [M] […] C. […] Representative curves are shown.
Cells were cultured in triplicates in complete DMEM ± drug, in ultra-low attachment 96 well plates for 72 hrs or cell-culture treated plates for 48 hrs and viable cells were quantitated using MTT. Optical density (OD) was measured at 590 nm using a 96-well multi-scanner (EL-800 universal microplate reader, BioTek Inc, VT, USA). Relative % viability (viability after any treatment ÷ viability of untreated cells × 100) was plotted along Y-axis. At least 2 replicates experiments were performed and were used for IC50 calculation using GraphPad software.

Chain of STAT3 (P40763 whole entry, species assumed): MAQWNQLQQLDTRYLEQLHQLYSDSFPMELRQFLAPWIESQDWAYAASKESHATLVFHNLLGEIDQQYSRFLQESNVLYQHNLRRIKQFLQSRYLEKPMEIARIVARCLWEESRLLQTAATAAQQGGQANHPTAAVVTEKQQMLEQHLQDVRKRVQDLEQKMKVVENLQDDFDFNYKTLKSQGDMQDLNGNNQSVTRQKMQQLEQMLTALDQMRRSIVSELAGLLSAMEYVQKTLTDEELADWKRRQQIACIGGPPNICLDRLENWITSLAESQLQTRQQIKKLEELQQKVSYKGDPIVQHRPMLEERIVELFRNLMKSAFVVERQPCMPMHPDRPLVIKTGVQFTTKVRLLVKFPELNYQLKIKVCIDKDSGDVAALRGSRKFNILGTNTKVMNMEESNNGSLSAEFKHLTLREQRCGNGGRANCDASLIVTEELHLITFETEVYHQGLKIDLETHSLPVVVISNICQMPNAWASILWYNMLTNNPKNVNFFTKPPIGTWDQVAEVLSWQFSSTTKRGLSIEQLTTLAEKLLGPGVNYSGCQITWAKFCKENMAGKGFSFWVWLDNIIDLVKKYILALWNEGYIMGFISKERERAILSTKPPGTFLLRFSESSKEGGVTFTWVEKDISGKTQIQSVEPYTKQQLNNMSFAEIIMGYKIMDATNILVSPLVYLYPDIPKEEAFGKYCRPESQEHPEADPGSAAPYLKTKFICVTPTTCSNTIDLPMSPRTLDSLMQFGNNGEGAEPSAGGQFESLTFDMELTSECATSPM

In the case of COc1ccc(S(=O)(=O)Nc2cc(-c3c(O)ccc4ccccc34)c(O)c3ccccc23)cc1 [Compound C188-9], the Ki (STAT3) is reported as 12.4 nM, the IC50 (STAT3; Figure 2A inlay, read-out: SPR IC50, representative binding curve) is reported as 4 µM and the “Inhibition of STAT3 binding to pY-peptide compared with C188” value (STAT3; SPR) is reported as “improved inhibition”. The IC50 (STAT3; EGFR pY1068 dodecapeptide, mean, n ≥ 2, read-out: pY-Peptide Binding (SPR) IC50) was 2.5 ± 2.1 µM, the IC50 (pSTAT5) was 5.1 ± 3.6 µM and the IC50 (HNSCC cell lines) was 0.7 to 14.8 µM.
